# Values quoted from earlier work, collected in PubChem BioAssay AID1259409 (Chemical Carcinogenesis Research Information System (CCRIS), 2018).
# Test system: rodent chemically induced tumor inhibition, incidence and multiplicity
# Assay: CCRIS tumor inhibitor studies
# Details: Promoter: NONE USED
structure (smiles),measurement,setting,value
CCO,"tumour outcome (control, treated, inhibition, significance)","Carcinogen: AZOXYMETHANE, 25843-45-2, Dose [Inhibitor]: 33% OF TOTAL CALORIES OF DIET GIVEN CONTINUOUSLY FOR 3 WK PRIOR TO CARCINOGEN DOSE AND 10 WK DURING INDUCTION (STUDY DUR, Route [Inhibitor]: ORAL, Species: RAT, Strain/Sex: F344/MALE, Target Tissue: Type of Lesion: COLON: TUMOR, Dose [Carcinogen]: 14 MG/KG 1/WK FOR 10 WK","91%, 5%, 94%, not calculated"
same,"tumour outcome (control, treated, inhibition, significance)","Carcinogen: AZOXYMETHANE, 25843-45-2, Dose [Inhibitor]: 33% OF TOTAL CALORIES OF DIET GIVEN CONTINUOUSLY FOR 3 WK PRIOR TO CARCINOGEN DOSE AND 10 WK DURING INDUCTION (STUDY DUR, Route [Inhibitor]: ORAL, Species: RAT, Strain/Sex: F344/MALE, Target Tissue: Type of Lesion: EAR CANAL: TUMOR, Dose [Carcinogen]: 14 MG/KG 1/WK FOR 10 WK","9%, 0%, 100%, not calculated"
same,"tumour outcome (control, treated, inhibition, significance)","Carcinogen: AZOXYMETHANE, 25843-45-2, Dose [Inhibitor]: 33% OF TOTAL CALORIES OF DIET GIVEN CONTINUOUSLY FOR 3 WK PRIOR TO CARCINOGEN DOSE AND 10 WK DURING INDUCTION (STUDY DUR, Route [Inhibitor]: ORAL, Species: RAT, Strain/Sex: F344/MALE, Target Tissue: Type of Lesion: SMALL INTESTINE: TUMOR, Dose [Carcinogen]: 14 MG/KG 1/WK FOR 10 WK","74%, 0%, 100%, p<0.0001"
same,"tumour outcome (control, treated, inhibition, significance)","Carcinogen: ETHYL CARBAMATE, 51-79-6, Dose [Inhibitor]: 0, 12% ADMINISTERED WITH CARCINOGEN IN DRINKING WATER FOR 41 WK (STUDY DURATION: 41 WK), Route [Inhibitor]: ORAL, Species: MOUSE, Strain/Sex: C3H/MALE, Target Tissue: Type of Lesion: LIVER: HEMANGIOENDOTHELIOMA, Dose [Carcinogen]: 20 MG/KG IN DRINKING WATER FOR 41 WK","14%, 14%, 0%, not calculated"
same,"tumour outcome (control, treated, inhibition, significance)","Carcinogen: ETHYL CARBAMATE, 51-79-6, Dose [Inhibitor]: 0, 12% ADMINISTERED WITH CARCINOGEN IN DRINKING WATER FOR 41 WK (STUDY DURATION: 41 WK), Route [Inhibitor]: ORAL, Species: MOUSE, Strain/Sex: C3H/MALE, Target Tissue: Type of Lesion: LIVER: HEMANGIOSARCOMA, Dose [Carcinogen]: 10 MG/KG IN DRINKING WATER FOR 41 WK","5%, 0%, 100%, not significant"
same,"tumour outcome (control, treated, inhibition, significance)","Carcinogen: ETHYL CARBAMATE, 51-79-6, Dose [Inhibitor]: 0, 12% ADMINISTERED WITH CARCINOGEN IN DRINKING WATER FOR 41 WK (STUDY DURATION: 41 WK), Route [Inhibitor]: ORAL, Species: MOUSE, Strain/Sex: C3H/MALE, Target Tissue: Type of Lesion: LIVER: HEMANGIOSARCOMA, Dose [Carcinogen]: 20 MG/KG IN DRINKING WATER FOR 41 WK","24%, 0%, 100%, not significant"
same,"tumour outcome (control, treated, inhibition, significance)","Carcinogen: ETHYL CARBAMATE, 51-79-6, Dose [Inhibitor]: 0, 12% ADMINISTERED WITH CARCINOGEN IN DRINKING WATER FOR 41 WK (STUDY DURATION: 41 WK), Route [Inhibitor]: ORAL, Species: MOUSE, Strain/Sex: C3H/MALE, Target Tissue: Type of Lesion: LIVER: HEPATOCELLULAR ADENOMA, Dose [Carcinogen]: 10 MG/KG IN DRINKING WATER FOR 41 WK","57%, 24%, 58%, not significant"
same,"tumour outcome (control, treated, inhibition, significance)","Carcinogen: ETHYL CARBAMATE, 51-79-6, Dose [Inhibitor]: 0, 12% ADMINISTERED WITH CARCINOGEN IN DRINKING WATER FOR 41 WK (STUDY DURATION: 41 WK), Route [Inhibitor]: ORAL, Species: MOUSE, Strain/Sex: C3H/MALE, Target Tissue: Type of Lesion: LIVER: HEPATOCELLULAR ADENOMA, Dose [Carcinogen]: 20 MG/KG IN DRINKING WATER FOR 41 WK","48%, 57%, -19%, not significant"
same,"tumour outcome (control, treated, inhibition, significance)","Carcinogen: ETHYL CARBAMATE, 51-79-6, Dose [Inhibitor]: 0, 12% ADMINISTERED WITH CARCINOGEN IN DRINKING WATER FOR 41 WK (STUDY DURATION: 41 WK), Route [Inhibitor]: ORAL, Species: MOUSE, Strain/Sex: C3H/MALE, Target Tissue: Type of Lesion: LIVER: HEPATOCELLULAR CARCINOMA, Dose [Carcinogen]: 10 MG/KG IN DRINKING WATER FOR 41 WK","5%, 0%, 100%, not significant"
same,"tumour outcome (control, treated, inhibition, significance)","Carcinogen: ETHYL CARBAMATE, 51-79-6, Dose [Inhibitor]: 0, 12% ADMINISTERED WITH CARCINOGEN IN DRINKING WATER FOR 41 WK (STUDY DURATION: 41 WK), Route [Inhibitor]: ORAL, Species: MOUSE, Strain/Sex: C3H/MALE, Target Tissue: Type of Lesion: LIVER: HEPATOCELLULAR CARCINOMA, Dose [Carcinogen]: 20 MG/KG IN DRINKING WATER FOR 41 WK","14%, 5%, 64%, not significant"
same,"tumour outcome (control, treated, inhibition, significance)","Carcinogen: ETHYL CARBAMATE, 51-79-6, Dose [Inhibitor]: 0, 12% ADMINISTERED WITH CARCINOGEN IN DRINKING WATER FOR 41 WK (STUDY DURATION: 41 WK), Route [Inhibitor]: ORAL, Species: MOUSE, Strain/Sex: C3H/MALE, Target Tissue: Type of Lesion: LUNG: ALVEOLAR ADENOMA, Dose [Carcinogen]: 10 MG/KG IN DRINKING WATER FOR 41 WK","19%, 0%, 100%, not significant"
same,"tumour outcome (control, treated, inhibition, significance)","Carcinogen: ETHYL CARBAMATE, 51-79-6, Dose [Inhibitor]: 0, 12% ADMINISTERED WITH CARCINOGEN IN DRINKING WATER FOR 41 WK (STUDY DURATION: 41 WK), Route [Inhibitor]: ORAL, Species: MOUSE, Strain/Sex: C3H/MALE, Target Tissue: Type of Lesion: LUNG: ALVEOLAR ADENOMA, Dose [Carcinogen]: 20 MG/KG IN DRINKING WATER FOR 41 WK","48%, 38%, 21%, not significant"
same,"tumour outcome (control, treated, inhibition, significance)","Carcinogen: ETHYL CARBAMATE, 51-79-6, Dose [Inhibitor]: 0, 12% ADMINISTERED WITH CARCINOGEN IN DRINKING WATER FOR 41 WK (STUDY DURATION: 41 WK), Route [Inhibitor]: ORAL, Species: MOUSE, Strain/Sex: C3H/MALE, Target Tissue: Type of Lesion: LUNG: CLARA-CELL ADENOMA, Dose [Carcinogen]: 10 MG/KG IN DRINKING WATER FOR 41 WK","52%, 24%, 54%, not significant"
same,"tumour outcome (control, treated, inhibition, significance)","Carcinogen: ETHYL CARBAMATE, 51-79-6, Dose [Inhibitor]: 0, 12% ADMINISTERED WITH CARCINOGEN IN DRINKING WATER FOR 41 WK (STUDY DURATION: 41 WK), Route [Inhibitor]: ORAL, Species: MOUSE, Strain/Sex: C3H/MALE, Target Tissue: Type of Lesion: LUNG: CLARA-CELL ADENOMA, Dose [Carcinogen]: 20 MG/KG IN DRINKING WATER FOR 41 WK","57%, 38%, 33%, not significant"
same,"tumour outcome (control, treated, inhibition, significance)","Carcinogen: ETHYL CARBAMATE, 51-79-6, Dose [Inhibitor]: 0, 20% SIMULTANEOUSLY WITH CARCINOGEN 1/D FOR 8 WK (STUDY DURATION: 16 WK), Route [Inhibitor]: GAVAGE, Species: MOUSE, Strain/Sex: NMRI/FEMALE, Target Tissue: Type of Lesion: LUNG: ADENOMA, Dose [Carcinogen]: 18 MG/KG IN 20% ETHANOL 1/D FOR 8 WK (CONTROL GROUP ADMINISTERED CARCINOGEN IN WATER)","65%, 76%, -17%, not significant"
same,"tumour outcome (control, treated, inhibition, significance)","Carcinogen: ETHYL CARBAMATE, 51-79-6, Dose [Inhibitor]: 0, 20% SIMULTANEOUSLY WITH CARCINOGEN 1/D FOR 8 WK (STUDY DURATION: 16 WK), Route [Inhibitor]: GAVAGE, Species: MOUSE, Strain/Sex: NMRI/FEMALE, Target Tissue: Type of Lesion: LUNG: ADENOMA, Dose [Carcinogen]: 36 MG/KG IN 20% ETHANOL 1/D FOR 8 WK (CONTROL GROUP ADMINISTERED CARCINOGEN IN WATER)","96%, 83%, 14%, not significant"
same,"tumour outcome (control, treated, inhibition, significance)","Carcinogen: ETHYL CARBAMATE, 51-79-6, Dose [Inhibitor]: 0, 20% SIMULTANEOUSLY WITH CARCINOGEN 1/D FOR 8 WK (STUDY DURATION: 16 WK), Route [Inhibitor]: GAVAGE, Species: MOUSE, Strain/Sex: NMRI/FEMALE, Target Tissue: Type of Lesion: LUNG: ADENOMA, Dose [Carcinogen]: 90 MG/KG IN 20% ETHANOL 1/D FOR 8 WK (CONTROL GROUP ADMINISTERED CARCINOGEN IN WATER)","100%, 100%, 0%, not significant"
